Experimental findings from patent US20210275576A1, “MOLECULAR HYDROGEN-CONTAINING COMPOSITION FOR PREVENTION AND/OR IMPROVEMENT OF GENETIC DISORDER” (MiZ Company Limited, priority 2020, published 2021) are described below.

The subject of this assay is patient diagnosed as having Down syndrome. As to conditions: inhalation 1-3 hours per day for one month, hydrogen concentration 4% to 6%. An excerpt:
A patient diagnosed as having Down syndrome developed mild cognitive impairment and could not go out because of a depressive symptom. Additionally, their skin had wrinkles due to premature aging characteristic to Down syndrome.

For `[HH]` [hydrogen, molecular hydrogen], the “ability to go out” value is “could go out”, the motivation to learn result was “got motivated to learn”, the “skin resilience (premature aging)” value is recorded as “became resilient” and the “skin wrinkles (premature aging)” value is recorded as “became less noticeable”. Moreover, the depressive symptom entry (200 ml/min (Jobs-α generator)) is reported as “improved”.
